US5110927A (The United States of America as represented by the …, priority 1987, dated 1992)
Entries after “also recorded” stand apart in the source; their conditions may differ. Read-outs that look alike come from different tables or passages of the source. One block for each molecule: values may come before it.

Assays:
[1] = test system: phenylephrine, alpha1-adrenergic pressor response; assay: diastolic blood pressure response to phenylephrine in anesthetized rats; type: in vivo, rat; conditions: i.v., prazosin 0.11 mg/kg or compound 47 0.09 mg/kg, 15 min
Experimental: (§1) Male rats were anesthetized, cannulated, and treated with hexamethonium bromide to block ganglionic effect, and their basal response in blood pressure to pressor compounds was measured. […] After fifteen minutes, the response in blood pressure to pressor compounds was re-evaluated.

[2] = target: α1-adrenoceptor (3H-prazosin binding sites); assay: displacement of 3H-prazosin from rat cerebral cortical (brain) membranes; conditions: for -logIC50: 3H-prazosin displacement, rat cerebral cortical membranes
Experimental: IC50 values and apparent Ki values were determined as in Table 1.
(§2) Rat brain cortices were homogenized in approximately 30 volumes/wet weight of 50 mM Tris buffer, pH 7.4, containing 10 mM MgCl2 by use of a Polytron (setting 6 for 10 seconds). It should be noted that this buffer was used throughout the experimental procedures. The homogenate was centrifuged at 48,000×g for 10 minutes in a Sorvall RC-5B centrifuge. The resulting pellet was resuspended in buffer by use of a Polytron and recentrifuged. This process was repeated and the pellet was resuspended in approximately 200 volumes for affinity studies or 20 volumes for irreversibility experiments.
Specific binding was defined as the difference between total binding (measured in the absence of any ligand) and non-specific binding (measured in the presence of 10 microM phentolamine). Duplicate tubes were used for each condition. Reaction tubes were incubated for 30 minutes at 30° C., then diluted to 5 ml with ice cold buffer, and filtered under reduced pressure through Whatman GF/C glass fiber filters. The reaction tubes and filters were washed three additional times with buffer.

[3] = test system: alpha1-adrenoceptors and other receptors; conditions: prior art; cited from earlier work
[4] = test system: hypertensive patients; normotensive and hypertensive animals; conditions: human, in vivo; cited from earlier work
[5] = test system: α1-adrenoceptor (3H-prazosin binding sites); assay: irreversibility experiment: membranes preincubated with compound, washed, assayed for saturation of 3H-prazosin binding; parameters: species or system rat; conditions: for irreversible blockade / effect on 3H-prazosin binding sites (in words): membranes, preincubation and washing
[6] = test system: BHT 933, alpha2-adrenergic pressor response; assay: diastolic blood pressure response to BHT 933 in anesthetized rats; type: in vivo, rat; conditions: i.v., prazosin 0.11 mg/kg or compound 47 0.09 mg/kg, 15 min
Experimental: as §1

[7] = test system: beta-adrenoceptors (3H-DHA binding sites); assay: irreversibility experiment: preincubation and washing of brain membranes, then 3H-DHA binding; parameters: species or system rat; conditions: preincubated and washed
Experimental: (§3) FIG. 5 - In vitro blockage of adrenergic binding sites in rat brain membranes by compound No. b 47 Membranes were preincubated without 0---0, or with 0---0 1×10^-7 M of compound No. 47 and processed as described in the Methods. Membranes were assayed for ^3 -prazosin binding and either ^3 -DHA or ^3 -yohimbine binding. The data are the averages of two separate experiments.
(§4) Aliquots of a suspension of membranes (5 ml), prepared as described above, were incubated with either the addition of only buffer (control) or a solution of the tested compound at various concentrations ranging from 1×10^-10 to 1×10^-5 for about 60 minutes at about 30° C. The suspensions were then diluted to approximately 40 mL with buffer, and incubated a further 10 minutes on ice. The membranes were then washed by a series of four centrifugations and resuspensions before they were finally resuspended in approximately 50 mL buffer for assay of saturation of ^3 -prazosin binding.

[8] = test system: alpha2-adrenoceptors (3H-yohimbine binding sites); assay: irreversibility experiment: preincubation and washing of brain membranes, then 3H-yohimbine binding; parameters: species or system rat; conditions: preincubated and washed
Experimental: as §3, §4

[9] = target: alpha2-adrenoreceptors (3H-yohimbine binding sites); assay: displacement of 3H-yohimbine from rat brain membranes
Experimental: (§5) FIG. 1 - Affinity of compound No. 47 at adrenergic binding sites on brain membranes. Membranes from rat brain cortex were prepared and the displacement of either ^3 H-prazosin 0---0, ^3 H-yohimbine Δ---Δ or ^3 H-DHA --- by compound No. 47 was measured. IC50 values and apparent Ki values were determined as in Table 1. The data in the figure are from a representative experiment which was repeated. […] The results are the averages of two separate experiments.
as §2

[10] = test system: α1-adrenoceptor (3H-prazosin binding sites); assay: intact animal study: intraperitoneal injection, membranes prepared 16 hours later and assayed for saturation of 3H-prazosin binding; type: in vivo, rat
Experimental: Sixteen hours later, the animals were sacrificed, membranes were prepared from various tissues, and assayed for saturation of ^3 -prazosin binding.
To test its efficacy in vivo. compound No. 47 was injected intraperitoneally at a dose of 10 mg/kg into rats. In membranes prepared from brains and hearts of animals 16 hours after injection of compound 47, a 32-44% decrease in Bmax was noted, compared to animals injected with vehicle only. […]

[11] = test system: norepinephrine-induced contraction of aorta rings; assay: contraction of rabbit aorta rings caused by norepinephrine; conditions: 10^-6 M, thirty minutes exposure
Experimental: Rings from aortas of rabbits were prepared using standard procedures, the rings were characterized, and the effects of compound 47 on contraction caused by norepinephrine were characterized.

[12] = test system: catecholamine-activated efflux of calcium ions, rat parotid cells; assay: calcium efflux activated by catecholamines in dispersed parotid cells; type: cell-based
[13] = target: T1, α1-adrenoceptor (3H-prazosin binding sites) (Rattus norvegicus, UniProt P15823); assay: irreversibility experiment: membranes preincubated with compound, washed, assayed for saturation of 3H-prazosin binding; conditions: spleen membranes, FIG. 3; statistically insignificant
T1 construct: Rat brain cortices were homogenized; from tissue; host or cells: rat brain cortex membranes; for some results heart ventricle, kidney cortex and spleen membranes
T1 sequence (P15823 1-515): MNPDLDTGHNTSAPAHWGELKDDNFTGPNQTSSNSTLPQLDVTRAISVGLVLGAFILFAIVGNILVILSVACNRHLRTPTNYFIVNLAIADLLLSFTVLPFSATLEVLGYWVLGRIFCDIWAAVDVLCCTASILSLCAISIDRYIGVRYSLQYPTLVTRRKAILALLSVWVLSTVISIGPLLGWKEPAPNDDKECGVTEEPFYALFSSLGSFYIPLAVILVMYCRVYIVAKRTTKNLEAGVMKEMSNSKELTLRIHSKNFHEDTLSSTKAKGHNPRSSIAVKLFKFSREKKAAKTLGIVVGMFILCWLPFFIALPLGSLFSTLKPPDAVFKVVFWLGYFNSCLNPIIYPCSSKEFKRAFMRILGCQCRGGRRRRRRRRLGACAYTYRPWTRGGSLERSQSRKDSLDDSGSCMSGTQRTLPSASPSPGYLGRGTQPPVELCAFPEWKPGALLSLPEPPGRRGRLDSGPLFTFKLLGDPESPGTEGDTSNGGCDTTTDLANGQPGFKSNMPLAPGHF

[14] = target: T2, beta-adrenoceptors (3H-DHA binding sites) (Rattus norvegicus, UniProt P18090); assay: displacement of 3H-DHA from rat brain membranes
T2 construct: Membranes from rat brain cortex were prepared; from tissue; host or cells: rat brain cortex membranes
T2 sequence (P18090 whole entry): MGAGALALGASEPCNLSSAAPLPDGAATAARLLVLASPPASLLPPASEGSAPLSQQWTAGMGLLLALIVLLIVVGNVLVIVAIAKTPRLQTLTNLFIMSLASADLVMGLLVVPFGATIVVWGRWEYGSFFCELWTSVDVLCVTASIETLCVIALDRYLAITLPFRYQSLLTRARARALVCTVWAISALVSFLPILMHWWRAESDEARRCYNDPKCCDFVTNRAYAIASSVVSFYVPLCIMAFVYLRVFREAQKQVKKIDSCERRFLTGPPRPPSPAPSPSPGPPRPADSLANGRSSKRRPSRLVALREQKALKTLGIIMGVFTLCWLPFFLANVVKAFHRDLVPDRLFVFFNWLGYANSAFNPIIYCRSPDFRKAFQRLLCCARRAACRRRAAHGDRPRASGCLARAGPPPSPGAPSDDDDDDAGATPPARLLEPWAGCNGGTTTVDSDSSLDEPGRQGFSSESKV
Experimental: as §5, §2

[15] = test system: cholinergic (muscarinic) activated efflux of calcium ions, rat parotid cells; assay: calcium efflux activated by cholinergic (muscarinic) system in dispersed parotid cells; type: cell-based

-logIC50 [2]: 9.79
Compound: COc1cc2nc(N3CCN(C(=O)c4ccco4)CC3)nc(N)c2cc1OC [Compound 1, 2-(4-(2-furoyl)-piperazine-1-yl)-4-amino-6,7-dimethoxy-quinazoline, reference compound]
effect on blood pressure response to phenylephrine [1]: a higher concentration of pressor compounds was required to obtain increases in blood pressure | receptor specificity (in words) [3]: preferential affinity for postysynaptic alpha1 -adrenoreceptors | lowering of blood pressure [4]: lower blood pressure in hypertensive patients and in normotensive and hypertensive animals | irreversible blockade / effect on 3H-prazosin binding sites (in words) ([5]; listed as Prazosin): prevented the decrease in binding sites caused by compound 47 alone; also recorded: had no effect on ^3 -prazosin binding | irreversible blockade / effect on 3H-prazosin binding sites (in words) ([5]; listed as prazosin): Washing the prazosin from the membranes restored the number of alpha1 -adrenoceptors | effect on blood pressure response to BHT 933 [6]: a higher concentration of pressor compounds was required to obtain increases in blood pressure

effect of preincubation on 3H-DHA binding (beta) [7]: unaffected | effect of preincubation on 3H-DHA binding (beta) ([7]; listed as alkylated prazosin): did not introduce permanent change | effect of preincubation on 3H-yohimbine binding (alpha2) ([8]; listed as alkylated prazosin): did not introduce permanent change | -logIC50 [2]: 7.99 | Ki ([2]; FIG. 1, rat brain cortex membranes, read-out: Apparent Ki at 3H-prazosin binding sites): 3.44 nM | Ki ([9]; FIG. 1, rat brain cortex membranes, read-out: Apparent Ki at 3H-yohimbine binding sites): 884 nM | affinity at 3H-yohimbine binding sites relative to 3H-prazosin binding sites ([9]; brain membranes): over a hundred times lower | displacement of 3H-yohimbine (in words) ([9]; brain membranes): much weaker competitor | Kd ([10]; 10 mg/kg i.p., brain, control 0.317 ± 0.071, read-out: Kd, experimental, brain): 0.292 ± 0.045 nM | Kd ([10]; 10 mg/kg i.p., heart, control 0.150 ± 0.019, read-out: Kd, experimental, heart): 0.255 ± 0.072 nM | decrease in binding sites, spleen membranes [13]: 18% | preincubation time to maximum blockade ([5]; FIG. 6, 1×10^-8 M, preincubation 15 min to 3 hr): about 45 minutes | blockage of 3H-prazosin binding ([5]; brain membranes, 1 micromole of compound 47 in preincubation): approximately 50% | maximum blockade of 3H-prazosin binding sites ([5]; brain membranes, altered protocols): no more than 50% | reduction of 3H-prazosin binding ([5]; brain membranes, preincubated with 10 nM, washed): 50% | maximum blockade after double preincubation ([5]; brain membranes, two preincubations with 10 nM, FIG. 7): ≤ 50% | blockade of binding sites, heart membranes ([5]; heart membranes, preincubated, FIG. 3): 40-50% | blockade of binding sites, kidney membranes ([5]; kidney membranes, preincubated, FIG. 3): 40-50% | Ki ([14]; FIG. 1, rat brain cortex membranes, read-out: Apparent Ki at 3H-DHA binding sites): 5910 nM | displacement of 3H-DHA (in words) ([14]; brain membranes): much weaker competitor
Compound: COc1cc2nc(N3CCN(C(=O)C4=CC5C=CC4CC5)CC3)nc(N)c2cc1OC (stereo not drawn) [Compound 47, 4-amino-2(4-bicyclo[2.2.2]octa-2,5-diene-2-carboxypiperazin-1-yl)-6,7-dimethoxyquinazoline]
effect of preincubation on 3H-yohimbine binding (alpha2) [8]: did not irreversibly block ^3 -yohimbine binding sites; also recorded: unaffected | effect on blood pressure response to phenylephrine [1]: counteracted only to phenylephrine | affinity to alpha1-adrenoceptors (in words) ([2]; discussion of Table 1): excellent affinity; also recorded: apparent nanomolar potency | % Reduction in Bmax, brain ([10]; 10 mg/kg i.p., brain): 36% | % Reduction in Bmax, heart ([10]; 10 mg/kg i.p., heart): 43% | % Reduction in Bmax, kidney ([10]; 10 mg/kg i.p., kidney): 21% | decrease in Bmax, brains and hearts ([10]; 10 mg/kg i.p., vs vehicle): 32-44% | Kd of remaining receptors after i.p. injection (in words) ([10]; i.p.): a significant increase in the Kd of the remaining receptors was seen | persistence of effect on norepinephrine contraction of aorta rings [11]: could not be cancelled by 21 hours of washing at 4 °C | inhibition of catecholamine-activated calcium efflux [12]: potently inhibited the efflux of calcium ions | Kd (KD) of remaining 3H-prazosin binding sites (in words) ([5]; after preincubation and washing): without a change in the affinity (KD) of the remaining sites; also recorded: Higher concentrations in the preincubation mixture increased the Kd of the remaining sites; also recorded: only decreased the concentration of ligand by 10- and 100-fold, respectively, at which the large Kd effects were noted; also recorded: the Kd of the remaining receptors increased when lower concentrations of added ligand were used in the diluted preincubation mixtures | irreversible blockade / effect on 3H-prazosin binding sites (in words) [5]: irreversible; also recorded: decreased the number of alpha1 -adrenoceptors permanently | irreversible blockade / effect on 3H-prazosin binding sites (in words) ([5]; listed as alkylated prazosin): Only approximately one half of the alpha1 -adrenoceptors could be eliminated in a clean manner | blockade of 3H-prazosin binding sites under altered protocols (in words) ([5]; preincubation time, ligand/receptor ratio, buffer, (-)epinephrine, double preincubation): remained at this level even after three hours of preincubation; also recorded: No difference in blockade; also recorded: Increasing the preincubation time up to three hours did not increase the amount of blockade; also recorded: did not change the outcome of the results; also recorded: did not affect the amount of blockade; also recorded: did not lead to further blockade | effect on muscarinic-activated calcium efflux [15]: did not interfere in the efflux of calcium ions
